Patent US20260226100A1, “Compound - Diagnostic Marker For Biliary Tract Cancer, Method For Detecting Enzymatic Activity, Method For Diagnosis Of Biliary Tract Cancer, Kit Comprising The Compound, Uses Of The Compound And Method For The Treatment Of Biliary Tract Cancer” (Urteste S.A., priority 2023, published 2026)
Values joined by “and” are separate entries in the source; they are usually repeats but may differ in a detail not shown here. Equal entries are not always repeated. *1 amine or outer side, *2 acyl side, *3 side chain or, on linkers, in order; H or OH if unused. Where no end group is shown, it is not given here. [ ]: non-standard residue; d: D form. Benzoyl(5-NH,2-NO2) = O=C(c1cc(N[*:1])ccc1[N+](=O)[O-])[*:2]; 2Abz = Nc1ccccc1C(=O)O

Tests used:
Assay type in all cases: biochemical, human
[1] = system: urine samples from subjects with biliary tract cancer or another neoplastic disease; test: Selectivity of substrate cleavage in urine of patients with different cancer types; conditions: urine of patients with testicle, large intestine, kidney, prostate, pancreas, liver, lung, ovarian and rectum cancer
Source text: The samples tested for each type of cancer were derived from 20 different patients for each of the tested cancers. The results are mean values for given cancer types.
(§1) The activity of the novel compounds according to the invention was studied in a group of 20 subjects diagnosed with biliary tract cancer using the representative compound according to the invention. […] The remaining compounds according to the invention are characterized by the analogous mechanism of action. For this purpose, the representative compound according to the invention, ABZ^1-Glu^2-Arg^3-Arg^4-Ala^5-NH2, was dissolved in dimethyl sulfoxide (at a concentration of 0.5 mg/mL) and then 50 L of the solution was mixed with 120 L of a buffer (200 mM Tris-HCl, pH 8.0) and 80 L of urine from a subject suffering from biliary tract cancer. The measurement was performed on a 96-well plate designed for measuring absorbance and each sample was analysed in triplicate at the temperature of 37° C. The duration of the measurement was 60 minutes. During the measurement, the wavelength characteristic for the chromophore (ANB-NH2) being released was monitored at the wavelength 405 nm (range 380-430 nm).
Furthermore, the dependence of the cleavage selectivity of the substrate, i.e. the compound according to the invention, on the cancer type being examined, was studied. […]

[2] = system: proteolytic enzymes in urine from a subject suffering from biliary tract cancer; test: Absorbance measurement of substrate hydrolysis in urine from subjects with biliary tract cancer; conditions: for absorbance: 405 nm, pH 8.0, 37° C., 60 minutes, triplicate
Experimental: as §1
The observed magnitude of increase in absorbance in time is different for each of the examined samples.
Such a result may be due to the difference in the activity as well as the amount of enzymes responsible for the enzymatic cleavage (proteolysis). […] The result indicates the absence of proteolytic enzymes specific/characteristic of biliary tract cancer.

[3] = system: urine samples taken from healthy persons; test: Absorbance measurement of substrate hydrolysis in urine from healthy subjects; conditions: for absorbance: 405 nm, pH 8.0, 37° C., 60 minutes, triplicate

cleavage of the substrate ([2]; all urine samples 1-13 from persons suffering from biliary tract cancer): underwent cleavage
absorbance ([2]; urine sample 1, biliary tract cancer): 0.004 and 0.002 and 0.003
absorbance ([2]; urine sample 2, biliary tract cancer): 0.0068 and 0.0034 and 0.0053
absorbance ([2]; urine sample 3, biliary tract cancer): 0.0035 and 0.005 and 0.0048
absorbance ([2]; urine sample 4, biliary tract cancer): 0.004 and 0.0067 and 0.0051
absorbance ([2]; urine sample 6, biliary tract cancer): 0.002 and 0.0021 and 0.0026
absorbance ([2]; urine sample 7, biliary tract cancer): 0.084 and 0.092 and 0.087
absorbance ([2]; urine sample 8, biliary tract cancer): 0.0746 and 0.0948 and 0.084
absorbance ([2]; urine sample 9, biliary tract cancer): 0.053 and 0.0458 and 0.0497
absorbance ([2]; urine sample 10, biliary tract cancer): 0.0436 and 0.035 and 0.041
absorbance ([2]; urine sample 11, biliary tract cancer): 0.0051 and 0.0041 and 0.0048
absorbance ([2]; urine sample 12, biliary tract cancer): 0.0025 and 0.0028 and 0.0032
absorbance ([2]; urine sample 13, biliary tract cancer): 0.0046 and 0.005 and 0.0047
Substance: ABZ-Glu-Arg-Arg-Ala-ANB-NH2 ([2Abz]ERRA-{Benzoyl(5-NH,2-NO2)-NH2})
cleavage of the substrate / increase in absorbance [1]: is not subject to cleavage
absorbance ([3]; urine sample 14, healthy subject): 0.000000
absorbance ([3]; urine sample 15, healthy subject): 0.000000
absorbance ([3]; urine sample 16, healthy subject): 0.000000
absorbance ([3]; urine sample 17, healthy subject): 0.000000
absorbance ([3]; urine sample 18, healthy subject): 0.000000
absorbance ([3]; urine sample 19, healthy subject): 0.000000
absorbance ([3]; urine sample 20, healthy subject): 0.000000
absorbance ([3]; urine sample 21, healthy subject): 0.000000
absorbance ([3]; urine sample 22, healthy subject): 0.000000
absorbance ([3]; urine sample 23, healthy subject): 0.000000
increase in absorbance / hydrolysis ([3]; urine samples 14 to 23 from healthy persons): does not lead to an increase in absorbance
